This is an account of results in US20160090556A1, “PRODUCTS COMPRISING MALODOR REDUCTION MATERIALS” (The Procter & Gamble Company, priority 2014, published 2016).

The nature of this data set: Liquid dish neat product liquid-air partition coefficient. In kind it is physicochemical. To be noted: for Comment Code: Log of liquid dish neat product liquid-air partition coefficient: code letters K, L.
Where [1] appears, read: class code letter within Comment Code.

Molecules are shown by their SMILES. Where two headings read alike, the source gives them in different places.

As to `CC1CC2CCC3C(C2O1)C(C)(C)C(C)C3(C)C` (centres unmarked) [Material 1097], the “Log of liquid dish neat product liquid-air partition coefficient (Comment Code K/L)” value (shortened to “Log … (Comment Code K/L)”) was “K (Log of liquid dish neat product liquid-air partition coefficient greater than or equal to −7)” and the “Comment Code: Log of liquid dish neat product liquid-air partition coefficient” value (“Comment Code: Log” below) is given as “K (Log of liquid dish neat product liquid-air partition coefficient greater than or equal to −7)”.

As for `CC(C)=CCC/C(C)=C/COC=O` [Material 306], the “Comment Code: Log” value is “K (Log of liquid dish neat product liquid-air partition coefficient greater than or equal to −7)”.

On to `C=CCc1ccc(OC)c(OC)c1` [Material 110], for which the “Log … (Comment Code K/L)” value under setting [1] is on record as “K (Log of liquid dish neat product liquid-air partition coefficient greater than or equal to −7)”.

For the compound `C=C1C2CCC(C)(C)C1CCC(OC)C2` (centres unmarked) [Material 7], the “Comment Code: Log” value is recorded as “K (Log of liquid dish neat product liquid-air partition coefficient greater than or equal to −7)”. Also, the “Log … (Comment Code K/L)” value under setting [1] is reported as “K (Log of liquid dish neat product liquid-air partition coefficient greater than or equal to −7)”.

On to `CC=Cc1ccc(OCC)c(O)c1` [Material 1112], for which the “Comment Code: Log” value was “K (Log of liquid dish neat product liquid-air partition coefficient greater than or equal to −7)”.

On to `CC1=CCC(C)C(C)C12C=CC(C)O2` (centres unmarked) [Material 192], for which the “Log … (Comment Code K/L)” value under setting [1] is “K (Log of liquid dish neat product liquid-air partition coefficient greater than or equal to −7)”.

Turning to `CC(C=O)Cc1ccc2c(c1)OCO2` (centres unmarked) [Material 288], under setting [1], the “Log … (Comment Code K/L)” value is reported as “K (Log of liquid dish neat product liquid-air partition coefficient greater than or equal to −7)”.

Turning to `C[C@@H]1CC[C@H]2C(C)(C)[C@H]3C[C@@]12CC[C@@]3(C)O` [Material 569], the “Log … (Comment Code K/L)” value is on record as “K (Log of liquid dish neat product liquid-air partition coefficient greater than or equal to −7)” and the “Comment Code: Log” value was “K (Log of liquid dish neat product liquid-air partition coefficient greater than or equal to −7)”.

In the case of `C[C@@H]1CCC=C2CC[C@@H](C(C)(C)O)C[C@]21C` [Material 1107], the “Log … (Comment Code K/L)” value is listed as “K (Log of liquid dish neat product liquid-air partition coefficient greater than or equal to −7)” and the “Comment Code: Log” value is “K (Log of liquid dish neat product liquid-air partition coefficient greater than or equal to −7)”.

In the case of `O=COCC=Cc1ccccc1` [Material 551], under setting [1], the “Log … (Comment Code K/L)” value was “K (Log of liquid dish neat product liquid-air partition coefficient greater than or equal to −7)”.

Take `CC1=CCC(=C(C)C)CCC(C)=CCC1` [Material 295]: under setting [1], the “Log … (Comment Code K/L)” value is “K (Log of liquid dish neat product liquid-air partition coefficient greater than or equal to −7)”.

In the case of `C=CC1(C)CCC(C(C)(C)O)O1` (centres unmarked) [Material 155], the “Log … (Comment Code K/L)” value under setting [1] was “K (Log of liquid dish neat product liquid-air partition coefficient greater than or equal to −7)”.

For the compound `C=C[C@@](C)(O)CCC=C(C)C` [Material 1017], the “Comment Code: Log” value is given as “K (Log of liquid dish neat product liquid-air partition coefficient greater than or equal to −7)”.

On to `C/C=C(\C)C(=O)OCC/C=C\CC` [Material 536], for which the “Comment Code: Log” value is on record as “K (Log of liquid dish neat product liquid-air partition coefficient greater than or equal to −7)”.

Take `CCNC(=O)C1CC(C)CCC1C(C)C` (centres unmarked) [Material 57]: under setting [1], the “Log … (Comment Code K/L)” value is “K (Log of liquid dish neat product liquid-air partition coefficient greater than or equal to −7)”.

`CC(=O)C(C)=CC1C(C)=CCCC1(C)C` (centres unmarked) [Material 703]: the “Comment Code: Log” value is “K (Log of liquid dish neat product liquid-air partition coefficient greater than or equal to −7)”.
